Among the test systems are 786-0 renal; HCT-116 colon; HOP-62 NSCLC; IGROV1 ovarian; K-562 leukemia; LOX IMVI melanoma; NCI-H522 lung; RPMI-8226 leukemia; SR leukemia; UACC-62 melanoma.
Holding throughout (experiment): DTP human tumour cell line panel, 48 h

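1) Cells in 96-well plates. 2) Compound, 48 h, 5 concentrations. 3) Linear interpolation between surrounding doses. 4) Unreached endpoint = highest concentration. GI50: concentration for 50% inhibition of growth. At the TGI there is no net growth.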

What is called GI50 is the concentration at which growth is held to half of that of the control. A word on the TGI: it is the concentration at which net growth stops. Low values mean more potent growth arrest, high ones less potent growth arrest. Turning to `Cc1ccc(NCCNCC(O)CO)c2c(=O)c3ccccc3sc12` (stereo not given), the GI50 in the assay with 786-0 renal is 1.37 µM; in the assay on HCT-116 colon it was 1.05 µM; in the assay with HOP-62 NSCLC, 1.35 µM; in the assay with IGROV1 ovarian, 1.61 µM; in the assay on K-562 leukemia, 1.52 µM; in the assay on LOX IMVI melanoma, 1.43 µM. For the same compound, the GI50 in the assay with NCI-H522 lung is 1.91 µM; in the assay on RPMI-8226 leukemia it was 2.48 µM; in the assay on SR leukemia it was 1.55 µM; in the assay with UACC-62 melanoma, 1.54 µM. Moreover, the TGI in the assay on 786-0 renal worked out at 2.79 µM; in the assay with HCT-116 colon, 2.3 µM; with HOP-62 NSCLC it was 2.95 µM; in the assay on IGROV1 ovarian, 3.43 µM; in the assay on K-562 leukemia, 3.26 µM; in the assay on LOX IMVI melanoma, 2.84 µM. The TGI in the assay on NCI-H522 lung turned out to be 4.09 µM; with RPMI-8226 leukemia, 6.83 µM; with SR leukemia, 3.97 µM; in the assay on UACC-62 melanoma, 3.08 µM.

Regarding `COc1ccc(-c2nn3ncccc3c2-c2ccnc(Nc3cccc(C(F)(F)F)c3)n2)cc1`, the GI50 is 9.98 µM in the assay with 786-0 renal; 7.99 µM with HCT-116 colon; 16.8 µM in the assay on HOP-62 NSCLC; 4.39 µM in the assay on IGROV1 ovarian; 8.04 µM in the assay on K-562 leukemia; 6.53 µM in the assay with LOX IMVI melanoma. For the same compound, the GI50 with NCI-H522 lung is 6.39 µM; with RPMI-8226 leukemia it was 7.67 µM; in the assay on SR leukemia, 13.5 µM; in the assay with UACC-62 melanoma, 7.86 µM. Moreover, the TGI in the assay with 786-0 renal is greater than 25 µM; in the assay with HCT-116 colon, greater than 25 µM; in the assay with HOP-62 NSCLC, greater than 25 µM; with IGROV1 ovarian, greater than 20.2 µM; in the assay on K-562 leukemia, greater than 25 µM; in the assay on LOX IMVI melanoma, greater than 25 µM. Moreover, the TGI with NCI-H522 lung was greater than 21.7 µM; in the assay with RPMI-8226 leukemia it was greater than 25 µM; in the assay on SR leukemia, greater than 25 µM; in the assay with UACC-62 melanoma, greater than 25 µM.

On to `COC(=O)C1=C(C(=O)OC)N(C(C)C)[C@H]2C(C(=O)OC)=C(C(=O)OC)N(C(C)C)[C@@H]12`, for which the TGI in the assay on 786-0 renal, with HCT-116 colon, with HOP-62 NSCLC, in the assay with IGROV1 ovarian, in the assay with K-562 leukemia and with LOX IMVI melanoma was greater than 100 µM each time. For the same compound, the TGI with NCI-H522 lung, in the assay with RPMI-8226 leukemia, with SR leukemia and in the assay with UACC-62 melanoma was greater than 100 µM throughout.

`COc1ccc(CNC(=O)c2ccc(-c3cc(-c4nnc(C)o4)ccc3C)cc2)cc1`: the GI50 was greater than 25 µM in the assay with 786-0 renal; 14.6 µM with HCT-116 colon; 17.5 µM in the assay with HOP-62 NSCLC; greater than 22.6 µM in the assay with IGROV1 ovarian; 11.2 µM in the assay with K-562 leukemia; greater than 25 µM with LOX IMVI melanoma. The GI50 was greater than 20.2 µM in the assay with NCI-H522 lung, 12.6 µM in the assay with RPMI-8226 leukemia, greater than 25 µM in the assay on SR leukemia and 11.1 µM in the assay on UACC-62 melanoma. Moreover, the TGI in the assay with 786-0 renal, in the assay with HCT-116 colon, in the assay with HOP-62 NSCLC, in the assay with IGROV1 ovarian, in the assay on K-562 leukemia and in the assay with LOX IMVI melanoma was greater than 25 µM in each case. Besides, the TGI with NCI-H522 lung, in the assay on RPMI-8226 leukemia, in the assay with SR leukemia and with UACC-62 melanoma was greater than 25 µM in each case.

For `C/C(=N\O)[C@H]1CC[C@@]2(C)[C@@H]3CC[C@H]4C(C)(C)/C(=N/O)CC[C@@]45CC35CC[C@]12C` (stereo not given in full), the GI50 in the assay with 786-0 renal was 2.97 µM; in the assay with HCT-116 colon, 2.45 µM; with HOP-62 NSCLC, 4.3 µM; with IGROV1 ovarian it was 5.28 µM; in the assay with K-562 leukemia it was 3.42 µM; in the assay with LOX IMVI melanoma, 0.759 µM. Moreover, the GI50 with NCI-H522 lung is greater than 16.7 µM; in the assay with RPMI-8226 leukemia it was 0.696 µM; with SR leukemia it was 1.85 µM; in the assay on UACC-62 melanoma, 5.44 µM. The TGI was 6.85 µM in the assay with 786-0 renal; 5.77 µM in the assay with HCT-116 colon; greater than 16.7 µM with HOP-62 NSCLC; greater than 16.7 µM in the assay with IGROV1 ovarian; greater than 16.7 µM with K-562 leukemia; 4.1 µM with LOX IMVI melanoma. Besides, the TGI is greater than 16.7 µM in the assay on NCI-H522 lung, 6.17 µM with RPMI-8226 leukemia, greater than 16.7 µM in the assay with SR leukemia and greater than 16.7 µM with UACC-62 melanoma.

For `CCOC(=O)C(=Cc1c(-c2ccccc2)[nH]c2ccccc12)C(=O)OCC`, the GI50 in the assay on 786-0 renal was 11.7 µM; in the assay on HCT-116 colon it was 4.25 µM; in the assay with HOP-62 NSCLC, 4.27 µM; in the assay with IGROV1 ovarian it was 5.56 µM; in the assay on K-562 leukemia it was 3.6 µM; in the assay with LOX IMVI melanoma, 5.58 µM. Moreover, the GI50 in the assay with NCI-H522 lung is 3.32 µM; with RPMI-8226 leukemia, 0.219 µM; in the assay with SR leukemia, 2.09 µM; with UACC-62 melanoma, 4.64 µM. Besides, the TGI with 786-0 renal is 37.2 µM; with HCT-116 colon it was 16 µM; in the assay on HOP-62 NSCLC, 14.1 µM; in the assay on IGROV1 ovarian it was 23.7 µM; in the assay on K-562 leukemia it was 24 µM; in the assay on LOX IMVI melanoma, 19.4 µM. Besides, the TGI is 11.8 µM in the assay on NCI-H522 lung, 3.28 µM with RPMI-8226 leukemia, 9.43 µM in the assay with SR leukemia and 21.7 µM in the assay on UACC-62 melanoma.

With `Cc1cc2c(-c3nc4ccccn4c3NC34CC5CC(CC(C5)C3)C4)c(O)c(O)cc2c(O)c1-c1c(C)cc2c(-c3nc4ccccn4c3NC34CC5CC(CC(C5)C3)C4)c(O)c(O)cc2c1O`, the GI50 with 786-0 renal was 0.932 µM; in the assay on HCT-116 colon, 0.0889 µM; with HOP-62 NSCLC it was 0.724 µM; in the assay with IGROV1 ovarian it was 0.883 µM; in the assay on K-562 leukemia, 0.152 µM; in the assay with LOX IMVI melanoma, 0.412 µM. Further, the GI50 in the assay on NCI-H522 lung was 0.613 µM; with RPMI-8226 leukemia it was 0.355 µM; with SR leukemia, 0.854 µM; in the assay with UACC-62 melanoma, 0.521 µM. Moreover, the TGI in the assay with 786-0 renal was 5.09 µM; in the assay with HCT-116 colon it was 6.22 µM; in the assay on HOP-62 NSCLC, greater than 25 µM; with IGROV1 ovarian it was greater than 25 µM; with K-562 leukemia it was 4.93 µM; in the assay on LOX IMVI melanoma, 3.38 µM. The TGI is 3.54 µM in the assay with NCI-H522 lung, greater than 25 µM in the assay on RPMI-8226 leukemia, 4.86 µM in the assay with SR leukemia and 1.91 µM in the assay with UACC-62 melanoma.

Values taken from PubChem BioAssay (NCI).
